Molecular target: T1, KCNQ2/3 channels (Homo sapiens, UniProt O43525+O43526)
T1 construct: expressed in transfected cells
Test: Fluorescence assay using a voltage sensitive dye (fluorimetry)
Assay type: cell-based
Conditions: CHO-K1 cells expressing KCNQ2/3 channels; for EC50: agonistic activity; for Emax / Fluorimetry % efficacy (retigabine 50 μM = 100%): retigabine 50 μM = 100%; for Emax: read-out: Fluorimetry % efficacy (retigabine 50 μM = 100%)
Procedure, shortened: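 CHO-K1 cells expressing human KCNQ2/3, loaded 45 min with red membrane-potential dye in ES buffer pH 7.4 (1 mM KCl), compound 30 min at room temperature. Fluorescence (525/560 nm) read before (F1) and at peak after KCl to 92 mM final (F2); agonism from F2/F1 change, EC50 fitted.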

Row | SMILES | EC50 [nM] | Emax [%] | Fluorimetry % efficacy (retigabine 50 μM = 100%) [%]
1 | O=C(NCC1CCOCC1)c1cccnc1SCCC(F)(F)c1ccc(F)cc1 [compound 189, 2-[[3,3-Difluoro-3-(4-fluorophenyl)-propyl]sulfanyl]-N-(tetrahydro-pyran-4-yl-methyl)-pyridine-3-carboxylic acid amide] | 287 | 161 | 
2 | COC(=O)CCNC(=O)c1cccnc1SCCC(F)(F)c1ccc(F)cc1 [compound 196, 3-[[2-[[3,3-Difluoro-3-(4-fluorophenyl)-propyl]sulfanyl]-pyridine-3-carbonyl]amino]-propionic acid methyl ester] | 3710 | 190 | 
3 | O=C(NCC1CC2CCC1C2)c1cccnc1SCCCc1cccc2ccccc12 (stereo not shown) [compound 52, N-(5-Bicyclo[2.2.1]heptanyl-methyl)-2-(3-naphthalen-1-yl-propylsulfanyl)-pyridine-3-carboxylic acid amide] | 496 | 190 | 
4 | O=C(NCC1CCOC1)c1cccnc1SCCC(F)(F)c1ccc(F)cc1 (stereo not shown) [compound 187, 2-[[3,3-Difluoro-3-(4-fluorophenyl)-propyl]sulfanyl]-N-(tetrahydro-furan-3-yl-methyl)-pyridine-3-carboxylic acid amide] | 805 | 231 | 
5 | O=C(NCCc1cccnc1)c1cccnc1SCCCc1ccc(F)cc1 [compound 81, 2-[3-(4-Fluorophenyl)-propylsulfanyl]-N-(2-pyridine-3-yl-ethyl)-pyridine-3-carboxylic acid amide] | 8020 | 89 | 
6 | O=C(NCc1cccs1)c1cccnc1SC1CCCCC1Cc1ccccc1 (stereo not shown) [compound 108, 2-[(2-Benzyl-cyclohexyl)sulfanyl]-N-(thiophen-2-yl-methyl)-pyridine-3-carboxylic acid amide] | 165 | 143 | 
7 | O=C(NCCCc1cccnc1)c1cccnc1SCCCc1ccc(F)cc1 [compound 94, 2-[3-(4-Fluorophenyl)-propylsulfanyl]-N-(3-pyridine-3-yl-propyl)-pyridine-3-carboxylic acid amide] | 2210 | 181 | 
8 | O=C(NCc1cccc(-c2ccccc2)c1)c1cccnc1SCCCc1ccc(F)cc1 [compound 122, 2-[3-(4-Fluorophenyl)-propylsulfanyl]-N-[(3-phenyl-phenyl)-methyl]-pyridine-3-carboxylic acid amide] | 153 | 94 | 
9 | Cc1ccc(CCCSc2ncccc2C(=O)NCc2cccs2)cc1 [compound 99, 2-[3-(p-Tolyl)-propylsulfanyl]-N-(thiophen-2-yl-methyl)-pyridine-3-carboxylic acid amide] | 178 | 70 | 
10 | O=C(NCc1cccs1)c1cccnc1SCCCCc1ccccc1 [compound 100, 2-(4-Phenyl-butylsulfanyl)-N-(thiophen-2-yl-methyl)-pyridine-3-carboxylic acid amide] | 1590 | 48 | 
11 | O=C(NCCO)c1cccnc1SCCC(F)(F)c1ccc(F)cc1 [compound 211, 2-[[3,3-Difluoro-3-(4-fluorophenyl)-propyl]sulfanyl]-N-(2-hydroxy-ethyl)-pyridine-3-carboxylic acid amide] | 8830 | 87 | 
12 | O=C(NCc1cncs1)c1cccnc1SCCCc1ccc(F)cc1 [compound 145, 2-[3-(4-Fluorophenyl)-propylsulfanyl]-N-(thiazol-5-yl-methyl)-pyridine-3-carboxylic acid amide] | 1490 | 174 | 
13 | O=C(NCc1ccc2c(c1)N(CC1CC1)CCO2)c1cccnc1SCCCc1ccc(F)cc1 [compound 160, N-[[4-(Cyclopropyl-methyl)-3,4-dihydro-2H-[1,4]benzoxazin-6-yl]-methyl]-2-[3-(4-fluorophenyl)-propylsulfanyl]-pyridine-3-carboxylic acid amide] | 228 | 74 | 
14 | O=C(NCc1cccs1)c1ccc(N2CCCC2)nc1SCCCc1ccccc1 [compound 112] | 494 |  | 104
15 | O=C(NCc1cccs1)c1cccnc1CCCSc1cccc(C(F)(F)F)c1 [compound 13] | 302 |  | 200
16 | CC(C)(C)CCNC(=O)c1cccnc1SC1CCCC1Cc1ccccc1 (stereo not shown) [compound 155, 2-[(2-Benzyl-cyclopentyl)sulfanyl]-N-(3,3-dimethyl-butyl)-pyridine-3-carboxylic acid amide] | 657 | 159 | 
17 | CC(CCc1ccc(F)cc1)Sc1ncccc1C(=O)NCC1CC2CCC1C2 (stereo not shown) [compound 74, N-(5-Bicyclo[2.2.1]heptanyl-methyl)-2-[[3-(4-fluorophenyl)-1-methyl-propyl]sulfanyl]-pyridine-3-carboxylic acid amide] | 62 | 260 | 

Row | SMILES | EC50 [nM] | Emax [%] | Fluorimetry % efficacy (retigabine 50 μM = 100%) [%]
18 | O=C(NCC1CC2CCC1C2)c1cccnc1SCCCc1cccc(F)c1 (stereo not shown) [compound 39, N-(5-Bicyclo[2.2.1]heptanyl-methyl)-2-[3-(3-fluorophenyl)-propylsulfanyl]-pyridine-3-carboxylic acid amide] | 250 | 250 | 
19 | O=C(NCC1C2CCC1CC2)c1cccnc1SCCCc1ccc(F)cc1 (stereo not shown) [compound 142, N-(7-Bicyclo[2.2.1]heptanyl-methyl)-2-[3-(4-fluorophenyl)-propylsulfanyl]-pyridine-3-carboxylic acid amide] | 97 | 260 | 
20 | CC(C)CCCSc1ncccc1C(=O)NCc1cccs1 [compound 5, 2-(4-Methyl-pentylsulfanyl)-N-(thiophen-2-yl-methyl)-pyridine-3-carboxylic acid amide] | 435 | 161 | 
21 | O=C(NCCCn1cccn1)c1cccnc1SCCCc1ccc(F)cc1 [compound 135, 2-[3-(4-Fluorophenyl)-propylsulfanyl]-N-[3-(1H-pyrazol-1-yl)-propyl]-pyridine-3-carboxylic acid amide] | 3140 | 154 | 
22 | CC(CCSc1ncccc1C(=O)NCC1CC2CCC1C2)c1ccc(F)cc1 (stereo not shown) [compound 91, N-(5-Bicyclo[2.2.1]heptanyl-methyl)-2-[3-(4-fluorophenyl)-butylsulfanyl]-pyridine-3-carboxylic acid amide] | 184 | 241 | 
23 | O=C(NCc1cccs1)c1cccnc1CCCS(=O)(=O)c1cccc(C(F)(F)F)c1 [compound 12, N-(Thiophen-2-yl-methyl)-2-[3-[[3-(trifluoromethyl)phenyl]sulfonyl]-propyl]-pyridine-3-carboxylic acid amide] | 2920 | 170 | 
24 | O=C(NCc1cccs1)c1cccnc1SCCOc1cccc(C(F)(F)F)c1 [compound 4, N-(Thiophen-2-yl-methyl)-2-[2-[3-(trifluoromethyl)-phenoxy]-ethylsulfanyl]-pyridine-3-carboxylic acid amide] | 772 | 126 | 
25 | COCCNC(=O)c1cccnc1SCCC(F)(F)c1ccc(F)cc1 [compound 171, 2-[[3,3-Difluoro-3-(4-fluorophenyl)-propyl]sulfanyl]-N-(2-methoxy-ethyl)-pyridine-3-carboxylic acid amide] | 432 | 181 | 
26 | CC(CSc1ncccc1C(=O)NCc1cccs1)Sc1ccc(F)cc1 (stereo not shown) [compound 19, 2-[2-[(4-Fluorophenyl)sulfanyl]-propylsulfanyl]-N-(thiophen-2-yl-methyl)-pyridine-3-carboxylic acid amide] | 37 | 171 | 
27 | COc1ccc(CNC(=O)c2cccnc2SCCCc2ccc(F)cc2)cc1 [compound 57, 2-[3-(4-Fluorophenyl)-propylsulfanyl]-N-[(4-methoxyphenyl)-methyl]-pyridine-3-carboxylic acid amide] | 252 | 83 | 
28 | COc1cccc(CCCSc2ncccc2C(=O)NCC2CC3CCC2C3)c1 (stereo not shown) [compound 70, N-(5-Bicyclo[2.2.1]heptanyl-methyl)-2-[3-(3-methoxyphenyl)-propylsulfanyl]-pyridine-3-carboxylic acid amide] | 244 | 308 | 
29 | O=C(NCC1CC2CCC1C2)c1cccnc1SCCOc1cccc(C(F)(F)F)c1 (stereo not shown) [compound 47, N-(5-Bicyclo[2.2.1]heptanyl-methyl)-2-[2-[3-(trifluoromethyl)-phenoxy]-ethylsulfanyl]-pyridine-3-carboxylic acid amide] | 218 | 183 | 
30 | O=C(NCc1ccc2c(c1)CCO2)c1cccnc1SCCCc1ccc(F)cc1 [compound 72, N-(2,3-Dihydro-benzofuran-5-yl-methyl)-2-[3-(4-fluorophenyl)-propylsulfanyl]-pyridine-3-carboxylic acid amide] | 85 | 85 | 
31 | CCCCCCSc1ncccc1C(=O)NCC1CC2CCC1C2 (stereo not shown) [compound 45, N-(5-Bicyclo[2.2.1]heptanyl-methyl)-2-(hexylsulfanyl)-pyridine-3-carboxylic acid amide] | 1610 | 224 | 
32 | O=C(NCC12CCC(CC1)C2)c1cccnc1SCCC(F)(F)c1ccc(F)cc1 [compound 205, N-(1-Bicyclo[2.2.1]heptanyl-methyl)-2-[[3,3-difluoro-3-(4-fluorophenyl)-propyl]sulfanyl]-pyridine-3-carboxylic acid amide] | 28 | 294 | 
33 | Cc1cc(C)cc(CNC(=O)c2cccnc2SCCC(F)(F)c2ccc(F)cc2)c1 [compound 184, 2-[[3,3-Difluoro-3-(4-fluorophenyl)-propyl]sulfanyl]-N-[(3,5-dimethyl-phenyl)-methyl]-pyridine-3-carboxylic acid amide] |  | 23 | 
34 | O=C(NCc1cccc(O)c1)c1cccnc1SCCCc1ccc(F)cc1 [compound 84, 2-[3-(4-Fluorophenyl)-propylsulfanyl]-N-[(3-hydroxyphenyl)-methyl]-pyridine-3-carboxylic acid amide] | 3510 | 55 | 
